Laboratory results: ChEMBL document CHEMBL3792360, “Antibacterial activity of Mannich bases derived from 2-naphthols, aromatic aldehydes and secondary aliphatic amines” (2016)
Converted amounts (≈) assume the structure as drawn.

Legend:
Assay type in all cases: functional
[1] = tested on: Escherichia coli; test: Antibacterial activity against Escherichia coli ATCC 35218 after 16 to 20 hrs by broth microdilution method
[2] = tested on: Escherichia coli; test: Antibacterial activity against Escherichia coli ATCC 25922 after 16 to 20 hrs by broth microdilution method
[3] = tested on: Enterococcus faecalis; test: Antibacterial activity against Enterococcus faecalis ATCC 25912 after 16 to 20 hrs by broth microdilution method
[4] = tested on: Pseudomonas aeruginosa; test: Antibacterial activity against Pseudomonas aeruginosa CIP 82118 after 16 to 20 hrs by broth microdilution method
[5] = tested on: Staphylococcus aureus; test: Antibacterial activity against Staphylococcus aureus […] after 16 to 20 hrs by broth microdilution method
[6] = tested on: Enterobacter cloacae; test: Antibacterial activity against Enterobacter cloacae CIP 103475 after 16 to 20 hrs by broth microdilution method
[7] = tested on: Citrobacter freundii; test: Antibacterial activity against Citrobacter freundii CIP 5732 after 16 to 20 hrs by broth microdilution method
[8] = tested on: Klebsiella pneumoniae; test: Antibacterial activity against Klebsiella pneumoniae CIP 53153 after 16 to 20 hrs by broth microdilution method
[9] = tested on: Proteus vulgaris; test: Antibacterial activity against Proteus vulgaris CIP 104989 after 16 to 20 hrs by broth microdilution method
[10] = tested on: Staphylococcus aureus; test: Antibacterial activity against methicillin-resistant Staphylococcus aureus ATCC 43300 after 16 to 20 hrs by broth microdilution method

Row | SMILES | MIC [1] [µg/mL] | MIC [2] [µg/mL] | MIC [3] [µg/mL] | MIC [4] [µg/mL] | MIC [5] [µg/mL] | MIC [6] [µg/mL] | MIC [7] [µg/mL] | MIC [8] [µg/mL] | MIC [9] [µg/mL] | MIC [10] [µg/mL]
1 | Oc1ccc2ccccc2c1C(c1cccs1)n1nnc2ccccc21 (stereo not given) | > 512 | > 512 | > 512 | > 512 | 16 (≈ 44.8 µM) | > 512 | > 512 | > 512 | > 512 | 16 (≈ 44.8 µM)
2 | CC1(C)S[C@@H]2[C@H](NC(=O)[C@H](N)c3ccc(O)cc3)C(=O)N2[C@H]1C(=O)O [AMOXICILLIN] | 2 (≈ 5.47 µM) | 2 (≈ 5.47 µM) | 0.25 (≈ 0.684 µM) | > 512 | 0.06 (≈ 0.164 µM) | 256 (≈ 701 µM) | 125 (≈ 342 µM) | 256 (≈ 701 µM) | 256 (≈ 701 µM) | 8 (≈ 21.9 µM)
